Assay results reported in the NIST ThermoML archive (doi:10.1016/j.jct.2014.06.012).
± gives the expanded uncertainty stated by the source.

Test: Molar enthalpy of transition or fusion
Conditions: Adiabatic calorimetry

O=P([O-])([O-])[O-].[Cs+].[Mn+2] [cesium manganese(II) phosphate]
Molar enthalpy of transition or fusion (Crystal 2): 0.038 ± 0.000669 kcal/mol
Molar enthalpy of transition or fusion (Crystal 3): 0.00306 ± 9.56e-05 kcal/mol
